Laboratory results as given in patent publication US7863332B2, “Biaromatic compound activators of PPARγ receptors and cosmetic/pharmaceutical compositions comprised thereof” (Galderma Research & Development, priority 2004, dated 2011).

Assays:
Format in all cases: cell-based
PPARα = target: T1, PPARα (Homo sapiens, UniProt Q07869); experiment: Cross-curve PPAR transactivation test (PPARα); details: HeLN cells, Gal-hPPARα, luciferase reporter; cross curves against reference agonist, Schild regression; n.a means not active; read-out: PPAR alpha Kd app
T1 sequence (Q07869 202-468 limits assumed): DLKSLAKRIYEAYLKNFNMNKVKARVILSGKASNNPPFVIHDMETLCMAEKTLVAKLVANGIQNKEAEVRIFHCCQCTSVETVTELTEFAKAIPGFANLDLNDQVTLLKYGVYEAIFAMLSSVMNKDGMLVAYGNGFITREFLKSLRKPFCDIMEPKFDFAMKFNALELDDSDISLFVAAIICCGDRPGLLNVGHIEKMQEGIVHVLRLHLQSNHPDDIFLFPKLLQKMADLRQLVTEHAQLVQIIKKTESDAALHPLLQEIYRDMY
Protocol: (§1) The activation of PPAR receptors with an agonist (activator) in HeLN cells leads to the expression of a reporter gene, luciferase, which, in the presence of a substrate, generates light. The modulation of the PPAR receptors is measured by quantifying the luminescence produced after incubating the cells in the presence of a reference agonist. The ligands displace the agonist from its site. The measurement of the activity is performed by quantifying the light produced. This measurement makes it possible to determine the modulatory activity of the compounds according to the invention by determining the constant that is the affinity of the molecule for the PPAR receptor. Since this value can fluctuate depending on the basal activity and the expression of the receptor, it is referred to as Kd apparent (KdApp in nM).
(§2) To determine this constant, “cross curves” of the test product against a reference agonist are produced in a 96-well plate: 10 concentrations of the test product plus a concentration 0 are arranged in a line, and 7 concentrations of the agonist plus a concentration 0 are arranged in a column. This is 88 measurement points for 1 product and 1 receptor. The remaining 8 wells are used for repeatability controls.
(§3) Measurements are also taken for total agonist controls with the same products.
(§4) The HeLN cell lines used are stable transfectants containing the plasmids ERE-βGlob-Luc-SV-Neo (reporter gene) and PPAR (α, δ, γ) Gal-hPPAR. These cells are inoculated into 96-well plates at a rate of 10 000 cells per well in 100 μl of DMEM medium without phenol red and supplemented with 10% of defatted calf serum. The plates are then incubated at 37° C. and 7% CO2 for 16 hours.
(§5) The various dilutions of the test products and of the reference ligand are added at a rate of 5 μl per well. The plates are then incubated for 18 hours at 37° C. and 7% CO2. The culture medium is removed by turning over and 100 μl of a 1:1 PBS/luciferin mixture are added to each well. After 5 minutes, the plates are read by the luminescence detector.

PPARγ = target: T2, PPARγ (Homo sapiens, UniProt P37231); experiment: Cross-curve PPAR transactivation test (PPARγ); details: HeLN cells, Gal-hPPARγ, luciferase reporter; cross curves against reference agonist, Schild regression; n.a means not active; read-out: PPAR gamma Kd app
T2 sequence (P37231 238-505 limits assumed): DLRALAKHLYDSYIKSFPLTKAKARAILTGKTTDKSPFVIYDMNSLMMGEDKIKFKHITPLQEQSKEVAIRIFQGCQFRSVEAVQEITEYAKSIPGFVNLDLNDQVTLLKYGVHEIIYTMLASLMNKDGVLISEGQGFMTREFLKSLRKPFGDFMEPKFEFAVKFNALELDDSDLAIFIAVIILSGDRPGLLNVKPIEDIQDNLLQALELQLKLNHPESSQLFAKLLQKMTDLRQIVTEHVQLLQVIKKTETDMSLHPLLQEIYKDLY
Protocol: as §1, §2, §3, §4, §5

[1] = system: sebocytes obtained from rat preputial glands; experiment: Rat sebocyte culture test; details: 120 h, 14C acetate-labelled lipids, 5 days incubation + 24 hours label, read-out: Triglycerides AC50
Excerpt: Sebocytes in culture obtained from rat preputial gland constitute a pertinent model for evaluating sebaceous function modulatory compounds as described by Rosenfield et al. (Mechanisms of androgen induction of sebocyte differentiation. Rosenfield R. L., Deplewski D., Kentsis A., Ciletti N., Dermatology, 1998; 196(1):43-6). This model has especially been used to characterize PPAR compounds with potential in dermatology (Rat preputial sebocyte differentiation involves peroxisome proliferator-activated receptors. Rosenfield R. L., Kentsis A., Deplewski D., Ciletti N., J. Invest. Dermatol., 1999 February; 112(2):226-32). These sebocytes have functional similarities close to those of human skin sebocytes (response to androgens and to anti-androgens, accumulation of specific sebum lipids, expression of specific markers of the sebaceous gland). The data resulting from this test are considered as pertinent of potential activity on the human sebaceous gland.
Protocol for culturing sebocytes obtained from rat preputial glands
The preputial glands are obtained from 10-week-old male rats. They are extracted under anesthesia with isoflurane, before euthanizing the animals. The glands are then digested enzymatically with trypsin (0.25% trypsin+collagenase H 1.5 mg/ml/gland). The cells are cultured for 24 hours in 24-well plates (37° C., 5% CO2) in DMEM culture medium supplemented with various factors, especially fetal calf serum (10%), glutamine (1%), a cocktail of antibiotics and anti-mycotic agents and insulin (5 μg/ml). The cells are then placed in Cellgro medium supplemented with various factors (Mediatech®) and the test compounds are then added in response doses (duplicate). After incubation for 5 days, 10 μl of radio labeled (^14C) acetate are added to the culture medium (0.2 μCi/μl, Amersham). The cells are incubated for 24 hours and then washed and recovered after digestion with trypsin. The radiolabelled lipids are then extracted using a methanol/dichloromethane mixture (1/2) and placed on a silica TLC plate (Merck®) using a loading robot. The lipids are then separated and quantified after revelation using a Phosphorimager (analysis by image analysis software). For each compound, the AC50 (concentration for which 50% of the effect of the compound is obtained) is determined. The results are expressed as nanomolar concentration for the following specific sebaceous gland lipids: Triglycerides and/or Cholesterol esters.

PPARδ = target: T3, PPARδ (Homo sapiens, UniProt Q03181); experiment: Cross-curve PPAR transactivation test (PPARδ); details: HeLN cells, Gal-hPPARδ, luciferase reporter; cross curves against reference agonist, Schild regression; n.a means not active; read-out: PPARs delta Kd app
T3 sequence (Q03181 171-441 limits assumed): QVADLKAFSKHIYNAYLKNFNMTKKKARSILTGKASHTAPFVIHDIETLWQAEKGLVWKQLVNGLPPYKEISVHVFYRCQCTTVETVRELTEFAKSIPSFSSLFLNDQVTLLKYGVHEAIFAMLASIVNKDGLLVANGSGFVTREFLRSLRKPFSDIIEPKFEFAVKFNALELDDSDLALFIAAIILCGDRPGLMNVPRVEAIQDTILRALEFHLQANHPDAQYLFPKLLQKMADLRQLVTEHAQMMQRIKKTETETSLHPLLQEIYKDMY
Protocol: as §1, §2, §3, §4, §5

Structure (SMILES): CCCCCCCNC(=O)N(C)c1cccc(-c2ccc(CCC(=O)O)cc2OCCC(C)C)c1 [Example 16, 3-[3′-(3-heptyl-1-methylureido)-2-(3-methylbutoxy)biphenyl-4-yl]propanoic acid]
- Kd (PPARα): 1000 nM
- Kd (PPARγ): 1 nM
- AC50 [1]: 0.008 nM

Structure (SMILES): CCCCCCCNC(=O)N(C)c1cccc(-c2ccc(CCC(=O)O)cc2OCCCC)c1 [Example 26, 3-[2-butoxy-3′-(3-heptyl-1-methylureido)biphenyl-4-yl]propanoic acid]
- Kd (PPARα): 250 nM
- Kd (PPARγ): 0.25 nM
- AC50 [1]: 0.005 nM
- Kd (PPARδ): 1000 nM

Structure (SMILES): CCCCCCCNC(=O)N(C)c1cccc(-c2ccc(CCC(=O)O)cc2OCCCC(F)(F)F)c1 [Example 38, 3-[3′-(3-heptyl-1-methylureido)-2-(4,4,4-trifluorobutoxy)biphenyl-4-yl]propanoic acid]
- Kd (PPARα): 250 nM
- Kd (PPARγ): 1 nM
- AC50 [1]: 0.006 nM

Structure (SMILES): CCCCCNC(=O)N(C)c1cccc(-c2ccc(CCC(=O)O)cc2OCCCC)c1 [Example 41, 3-[2-butoxy-3′-(1-methyl-3-pentylureido)biphenyl-4-yl]propanoic acid]
- Kd (PPARα): 60 nM
- Kd (PPARγ): 0.5 nM
- AC50 [1]: 0.008 nM
- Kd (PPARδ): 2000 nM

Structure (SMILES): CCCCCCCNC(=O)N(C)c1cccc(-c2ccc(CCC(=O)O)cc2OCc2ccc(F)cc2)c1 [Example 44, 3-[2-(4-fluorobenzyloxy)-3′-(3-heptyl-1-methylureido)biphenyl-4-yl]propanoic acid]
- Kd (PPARα): 1000 nM
- Kd (PPARγ): 1 nM
- AC50 [1]: 0.008 nM
